From ChEMBL document CHEMBL5113370, “Primed for global coronavirus pandemic: Emerging research and clinical outcome” (Eur J Med Chem, 2021)

Columns and labels:
SARS-CoV-2 [1] = assay: Antiviral activity against SARS-CoV 2 infected in african green monkey Vero E6 cells by immunofluorescence assay; format: functional, organism-based; settings: Severe acute respiratory syndrome coronavirus 2, Vero C1008
[2] = Selectivity index, ratio of IC50 for African green monkey Vero cells to IC50 for antiviral activity against SARS-CoV 2 nCoV-2019BetaCoV/Wuhan/WIV04/2019; format: toxicity; settings: read-out: Ratio IC50
[3] = Cytotoxicity against African green monkey Vero cells by CCK8 assay method; format: toxicity, cell-based; settings: chlorocebus sabaeus
SARS-CoV-2 [4] = assay: Antiviral activity against SARS-CoV 2 nCoV-2019BetaCoV/Wuhan/WIV04/2019 infected in african green monkey Vero E6 cells measured after 48 hrs; format: functional, organism-based; settings: Severe acute respiratory syndrome coronavirus 2, nCoV-2019BetaCoV/Wuhan/WIV04/2019, Vero C1008, 48 h

Row | Compound | IC50 (SARS-CoV-2 [1]) [µM] | selectivity ratio [2] | CC50 [3] [µM] | EC50 (SARS-CoV-2 [4]) [µM]
1 | CCN(CC)CCOc1ccc2c(c1)C(=O)c1cc(OCCN(CC)CC)ccc1-2 [TILORONE] | 4.09 | – | – | –
2 | NC(=O)c1ncn([C@@H]2O[C@H](CO)[C@@H](O)[C@H]2O)n1 [RIBAVIRIN] | – | > 3.65 | > 400 | 110
